Laboratory results taken from patent US20250313548A1 (Actio Biosciences, Inc., priority 2023, published 2025).

Target: human, KCNT1 (Homo sapiens (Human), UniProt Q5JUK3)
Assay: FLIPR Tl/K Flux Assay
Type: cell-based
Conditions: HEK293 cells stably expressing human KCNT1; Tl+ flux stimulated with EC80 of agonist Loxapine
Method: HEK293 cells stably expressing human, KCNT1 were cultured in DMEM, 10% FBS, 100 U/mL penicillin-streptomycin and […] puromycin for selection purposes. One day before the assay, cells were detached using TrypLE™ Express and counted using a cell counter. Only cells with >85% viability were used for the assay. […] The cells were incubated overnight at 37° C., 5% (v/v) CO2.
On the day of the assay, the reagents were prepared following the FLIPR® Potassium Assay Kit manual: prepare 2× dye solution, dilute the dye with assay buffer (20 mM HEPES in 1× HBSS, PH7.4), addition of probenecid to a final concentration of 5 mM, and vortexed vigorously for 1-2 minutes. The cell plate was flicked to remove medium and tapped on paper towels to remove excess media. […] The cell plate was moved to a plate shaker, agitated at 600 rpm for two minutes, and then incubated at 25° C. for one hour.
The compounds were prepared in DMSO and transferred to a 384-well compound plate (PP, low binding), referred to as a source plate. Reference agonist (300 nM) compound and test inhibitor (10 mM) compounds were added to the compound plate and a 4-fold serial dilution was performed in DMSO. Using an ECHO dispenser, compounds were dispensed at 90 nL/well from the source plate to a 384-well compound plate (PP, low binding). After the dispensing was complete, 30 µL/well assay buffer was added to the compound plate and mixed for two minutes on a plate shaker. The cell plate, compound plate, and tips were loaded into the FLIPR instrument, and a transfer of 10 μl of 3× compound to the cell plate was initiated. The treated cell plate was kept at in the dark at 25° C. for 30 minutes. Chloride-free stimulation buffer containing 4× 2 mM Tl+ and 4×EC80 of agonist Loxapine was loaded into a 384-well compound plate (PP, low binding). After the 30-minute incubation, the cell plate, compound plate containing stimulation buffer, and FLIPR tips were loaded into the FLIPR instrument. After a baseline read, the FLIPR initiates a transfer of 10 μL of stimulation buffer containing Loxapine to the cell plate. The plate was read for 160 sec with 1 second interval reads to obtain the data.
The normalized fluorescence reading (RFU) was calculated as shown follow, while Fmax and Fmin stand for maximum and minimum of signal during defined time window. The IC50 was calculated by fitting % inhibition against log of compound concentrations with Hill equation using XLfit.

human, KCNT1, sequence (Q5JUK3 whole entry): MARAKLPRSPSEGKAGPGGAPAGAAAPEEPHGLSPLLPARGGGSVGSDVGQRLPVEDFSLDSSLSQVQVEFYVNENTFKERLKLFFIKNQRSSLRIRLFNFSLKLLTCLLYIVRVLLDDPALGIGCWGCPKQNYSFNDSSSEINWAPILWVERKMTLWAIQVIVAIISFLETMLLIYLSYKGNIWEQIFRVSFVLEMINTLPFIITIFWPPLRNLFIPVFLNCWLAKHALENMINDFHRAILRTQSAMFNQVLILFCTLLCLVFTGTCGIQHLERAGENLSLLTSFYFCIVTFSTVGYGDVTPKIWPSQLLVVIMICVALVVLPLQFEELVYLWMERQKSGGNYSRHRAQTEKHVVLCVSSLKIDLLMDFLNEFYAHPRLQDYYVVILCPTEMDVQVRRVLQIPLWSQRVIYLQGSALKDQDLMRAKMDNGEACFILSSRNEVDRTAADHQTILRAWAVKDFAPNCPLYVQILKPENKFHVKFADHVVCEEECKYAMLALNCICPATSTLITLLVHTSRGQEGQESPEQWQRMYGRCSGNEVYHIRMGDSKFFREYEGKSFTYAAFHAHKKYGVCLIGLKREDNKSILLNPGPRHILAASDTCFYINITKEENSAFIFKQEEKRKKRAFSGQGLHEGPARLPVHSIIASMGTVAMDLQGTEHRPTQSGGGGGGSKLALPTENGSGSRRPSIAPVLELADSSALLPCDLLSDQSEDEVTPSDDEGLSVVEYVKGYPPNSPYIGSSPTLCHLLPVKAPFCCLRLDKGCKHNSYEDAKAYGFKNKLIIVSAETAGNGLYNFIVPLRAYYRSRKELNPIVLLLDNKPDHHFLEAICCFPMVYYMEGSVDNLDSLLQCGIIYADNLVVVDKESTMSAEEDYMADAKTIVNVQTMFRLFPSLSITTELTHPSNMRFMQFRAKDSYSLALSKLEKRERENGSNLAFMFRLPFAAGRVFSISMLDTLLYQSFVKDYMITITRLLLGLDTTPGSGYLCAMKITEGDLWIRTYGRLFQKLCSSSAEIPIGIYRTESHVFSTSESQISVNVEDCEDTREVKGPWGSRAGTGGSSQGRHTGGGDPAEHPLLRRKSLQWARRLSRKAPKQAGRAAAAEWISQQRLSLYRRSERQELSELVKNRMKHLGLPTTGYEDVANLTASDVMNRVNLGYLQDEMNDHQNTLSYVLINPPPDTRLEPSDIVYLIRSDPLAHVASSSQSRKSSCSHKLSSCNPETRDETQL

Row | SMILES | IC50 [nM]
1 | Cn1nc(C(F)(F)F)cc1C(=O)N[C@H]1CCc2cnc(-c3ccnc(C(F)(F)F)c3)cc21 [Compound I-118a] | < 250
2 | Cc1cnc(C(F)(F)F)cc1-c1cc2n(n1)CCC[C@@H]2NC(=O)c1ccnc(OC(F)(F)F)c1 [Compound I-181a, (S)-N-(2-(5-Methyl-2-(trifluoromethyl)pyridin-4-yl)-4,5,6,7-tetrahydropyrazolo[1,5-a]pyridin-4-yl)-2-(trifluoromethoxy)isonicotinamide] | < 250
3 | O=C(N[C@H]1CCCCc2nn(-c3ccnc(C4CC4)c3)cc21)c1cc(Cl)cc(C(F)(F)F)c1 [Compound I-110a] | < 250
4 | O=C(N[C@H]1CCCc2nc(-c3ccnc(C(F)(F)F)c3)oc21)c1cccc(C(F)(F)F)c1 [Compound I-188a, (S)-3-(Trifluoromethyl)-N-(2-(2-(trifluoromethyl)pyridin-4-yl)-4,5,6,7-tetrahydrobenzo[d]oxazol-7-yl)benzamide] | < 250
5 | Cn1nc(CC#N)cc1C(=O)N[C@H]1CCCc2nn(-c3ccnc(C(F)(F)F)c3)cc21 [Compound I-3a] | 500 to 1000
6 | O=C(N[C@H]1CCCc2nc(-c3ccnc(C4CC4)c3)oc21)c1cccc(C(F)(F)F)c1 [Compound I-171a, (S)-N-(2-(2-Cyclopropylpyridin-4-yl)-4,5,6,7-tetrahydrobenzo[d]oxazol-7-yl)-3-(trifluoromethyl)benzamide] | < 250
7 | N#Cc1cc(C(=O)N[C@H]2CCCCn3nc(-c4ccnc(C(F)(F)F)c4)cc32)ccc1F [Compound I-277a, (S)-3-Cyano-4-fluoro-N-(2-(2-(trifluoromethyl)pyridin-4-yl)-5,6,7,8-tetrahydro-4H-pyrazolo[1,5-a]azepin-4-yl)benzamide] | < 250
8 | Cn1nc(C(F)(F)F)cc1C(=O)N[C@H]1CCCc2oc(-c3ccnc(C(F)(F)F)c3)nc21 [Compound I-84a] | < 250
9 | N#Cc1cc(C(=O)N[C@H]2CCn3nc(-c4ccnc(C(F)(F)F)c4)cc32)cc(C(F)(F)F)c1 [Compound I-288a, (S)-3-Cyano-5-(trifluoromethyl)-N-(2-(2-(trifluoromethyl)pyridin-4-yl)-5,6-dihydro-4H-pyrrolo[1,2-b]pyrazol-4-yl)benzamide] | < 250
10 | Cc1nn(C(F)(F)F)cc1C(=O)N[C@H]1CCn2nc(-c3ccnc(C(F)(F)F)c3)cc21 [Compound I-556a] | < 250
11 | Cn1nc(C(C)(F)F)cc1C(=O)N[C@H]1CCCn2nc(-c3ccnc(C(F)(F)F)c3)cc21 [Compound I-363a] | < 250
12 | O=C(N[C@@H]1CCCc2nc(-c3ccnc(C(F)(F)F)c3)oc21)c1cncc(C(F)(F)F)n1 [Compound I-510b] | > 1000
13 | Cn1nc(C(F)(F)F)cc1C(=O)N[C@H]1CCc2cnc(-c3ccnc(C(F)(F)F)c3)nc21 [Compound I-46a, (S)-1-Methyl-3-(trifluoromethyl)-N-(2-(2-(trifluoromethyl)pyridin-4-yl)-6,7-dihydro-5H-cyclopenta[d]pyrimidin-7-yl)-1H-pyrazole-5-carboxamide] | 250 to 500
14 | Cn1nc(C(F)(F)F)cc1C(=O)N[C@H]1CCc2nn(-c3ccnc(C(F)(F)F)c3)cc21 [Compound I-1a, (S)-1-Methyl-3-(trifluoromethyl)-N-(2-(2-(trifluoromethyl)pyridin-4-yl)-2,4,5,6-tetrahydrocyclopenta[c]pyrazol-4-yl)-1H-pyrazole-5-carboxamide] | < 250
15 | O=C(N[C@H]1CCCn2nc(-c3ccnc(C(F)(F)F)c3)cc21)c1cc(Cl)cc(C(F)(F)F)c1 [Compound I-352a] | < 250
16 | O=C(N[C@H]1CCCn2nc(-c3ccnc(C(F)(F)F)c3)cc21)c1ccnc(C(F)(F)F)n1 [Compound I-327a, (S)-2-(Trifluoromethyl)-N-(2-(2-(trifluoromethyl)pyridin-4-yl)-4,5,6,7-tetrahydropyrazolo[1,5-a]pyridin-4-yl)pyrimidine-4-carboxamide] | < 250
17 | CC(C)(C)OC(=O)N[C@@H]1CCc2nn(-c3ccnc(C(F)(F)F)c3)cc21 [Compound I-105b] | > 1000

Row | SMILES | IC50 [nM]
18 | O=C(N[C@@H]1CCCc2nnc(-c3ccnc(C(F)(F)F)c3)cc21)c1cc(F)cc(F)c1 [Compound I-453b] | > 1000
19 | COc1cc(-c2cc3n(n2)CC[C@@H]3NC(=O)c2cccc(C(F)(F)F)c2)ccn1 [Compound I-286a, (S)-N-(2-(2-Methoxypyridin-4-yl)-5,6-dihydro-4H-pyrrolo[1,2-b]pyrazol-4-yl)-3-(trifluoromethyl)benzamide] | < 250
20 | COc1cc(-c2nc3c(o2)CCC[C@@H]3NC(=O)c2cc(C(F)(F)F)nn2C)ccn1 [Compound I-428a] | < 250
21 | N#Cc1cc(C(=O)N[C@H]2CCCn3nc(-c4ccnc(C(F)(F)F)c4)cc32)cc(C2CC2)c1 [Compound I-333a, (S)-3-Cyano-5-cyclopropyl-N-(2-(2-(trifluoromethyl)pyridin-4-yl)-4,5,6,7-tetrahydropyrazolo[1,5-a]pyridin-4-yl)benzamide] | < 250
22 | Cc1cnc(C(F)(F)F)cc1-c1cc2n(n1)CC[C@@H]2NC(=O)c1cccc(C#N)c1 [Compound I-144a, (S)-3-Cyano-N-(2-(5-methyl-2-(trifluoromethyl)pyridin-4-yl)-5,6-dihydro-4H-pyrrolo[1,2-b]pyrazol-4-yl)benzamide] | < 250
23 | O=C(N[C@H]1CCCn2nc(-c3ccnc(C4CC4)c3)cc21)c1ccnc(C(F)(F)F)c1 [Compound I-496a, (S)-N-(2-(2-Cyclopropylpyridin-4-yl)-4,5,6,7-tetrahydropyrazolo[1,5-a]pyridin-4-yl)-2-(trifluoromethyl)isonicotinamide] | < 250
24 | Cn1nc(C(F)(F)F)cc1C(=O)N[C@H]1CCCn2nc(-c3ccnc(C4CC4)c3)cc21 [Compound I-64a] | < 250
25 | Cn1nc(C(F)(F)F)nc1C(=O)N[C@H]1CCCn2nc(-c3cc(C4CC4)ncc3F)cc21 [Compound I-495a, (S)-N-(2-(2-Cyclopropyl-5-fluoropyridin-4-yl)-4,5,6,7-tetrahydropyrazolo[1,5-a]pyridin-4-yl)-1-methyl-3-(trifluoromethyl)-1H-1,2,4-triazole-5-carboxamide] | < 250
26 | O=C(N[C@H]1CCCn2nc(-c3ccnc(C(F)(F)F)c3)cc21)c1ccc(F)c(C(F)(F)F)c1 [Compound I-410a] | < 250
27 | COc1cc(-n2cc3c(n2)CC[C@@H]3NC(=O)c2ccc(F)c(C#N)c2)ccn1 [Compound I-259a, (S)-3-Cyano-4-fluoro-N-(2-(2-methoxypyridin-4-yl)-2,4,5,6-tetrahydrocyclopenta[c]pyrazol-4-yl)benzamide] | < 250
28 | Cc1ccccc1C(=O)N[C@H]1CCc2nn(-c3ccnc(C(F)(F)F)c3)cc21 [Compound I-92a] | < 250
29 | Cn1nc(C(F)(F)F)nc1C(=O)N[C@H]1CCCc2oc(-c3ccnc(C(F)(F)F)c3)nc21 [Compound I-241a, (S)-1-Methyl-3-(trifluoromethyl)-N-(2-(2-(trifluoromethyl)pyridin-4-yl)-4,5,6,7-tetrahydrobenzo[d]oxazol-4-yl)-1H-1,2,4-triazole-5-carboxamide] | < 250
30 | O=C(N[C@H]1CCc2nn(-c3ccnc(C(F)(F)F)c3)cc21)c1cnn(C(F)(F)F)c1 [Compound I-566a, (S)-1-(Trifluoromethyl)-N-(2-(2-(trifluoromethyl)pyridin-4-yl)-2,4,5,6-tetrahydrocyclopenta[c]pyrazol-4-yl)-1H-pyrazole-4-carboxamide] | < 250
31 | O=C(N[C@H]1CCCn2nc(-c3ccnc(C(F)(F)F)c3)cc21)c1cccc(C(F)(F)F)c1 [Compound I-290a, (S)-3-(Trifluoromethyl)-N-(2-(2-(trifluoromethyl)pyridin-4-yl)-4,5,6,7-tetrahydropyrazolo[1,5-a]pyridin-4-yl)benzamide] | < 250
32 | Cc1cnc(C(F)(F)F)cc1-c1cc2n(n1)CCCC[C@@H]2NC(=O)c1cccc(C#N)c1 [Compound I-280a, (S)-3-Cyano-N-(2-(5-methyl-2-(trifluoromethyl)pyridin-4-yl)-5,6,7,8-tetrahydro-4H-pyrazolo[1,5-a]azepin-4-yl)benzamide] | < 250
33 | O=C(NC1CCCc2nn(-c3ccnc(C(F)(F)F)c3)cc21)c1ccccn1 (racemic) [Compound I-31, (rac)-N-(2-(2-(Trifluoromethyl)pyridin-4-yl)-4,5,6,7-tetrahydro-2H-indazol-4-yl)picolinamide] | > 1000
34 | O=C(N[C@H]1CCCc2nc(-c3ccnc(C4CC4)c3)oc21)c1ccnc(OC(F)(F)F)c1 [Compound I-169a, (S)-N-(2-(2-Cyclopropylpyridin-4-yl)-4,5,6,7-tetrahydrobenzo[d]oxazol-7-yl)-2-(trifluoromethoxy)isonicotinamide] | < 250
